The test system of one test is A549. In words: Cytotoxicity against human A549 cells after 96 hrs by microplate reader assay. It counts as functional, cell-based. The note with it: A549, 96 h.
In the next test the test system is HT-29. Description: Cytotoxicity against human HT-29 cells after 96 hrs by microplate reader assay. Format: functional, cell-based. The conditions noted are these: HT-29, 96 h.

As usually defined, the IC50 is the concentration that inhibits the measured activity by half. Lower therefore signals higher potency. As for `CC[C@@]12CCCN(CCc3c([nH]c4ccccc34)CC1)C2`, the half-inhibitory concentration (IC50) is greater than 30 µM in the test with A549 and 30 µM in the test on HT-29.
Turning to `CC[C@]12CCCn3c(COC)cc(c31)-c1ccccc1NC(=O)CC2`, the 50% inhibitory concentration (IC50) in the test on A549 was found to be 5.38 µM; in the test with HT-29, 4.67 µM.
With `CC[C@]12CCCn3c(CO)cc(c31)-c1ccccc1NC(=O)CC2`, the figures for the IC50 with A549 and in the test with HT-29 were 8.21 µM and 8.89 µM, respectively.
For the molecule `CCOCc1cc2c3n1CCC[C@]3(CC)CCC(=O)Nc1ccccc1-2`, the IC50 is 7.44 µM in the test on A549 and 6.39 µM in the test on HT-29.
In the case of `CC(=O)O[C@@]12CO[C@@H]1C[C@H](O)[C@@]1(C)C(=O)[C@H](O)C3=C(C)[C@@H](OC(=O)[C@H](O)[C@@H](NC(=O)OC(C)(C)C)c4ccccc4)C[C@@](O)([C@@H](OC(=O)c4ccccc4)[C@H]21)C3(C)C` [DOCETAXEL], the IC50 was 0.000495 µM with A549 and 0.000334 µM in the test with HT-29.
Consider `CC[C@@]12CCCN(CCc3c(n(COC)c4ccccc34)CC1)C2` [KOPSIYUNNANINE D], for which the results for the IC50 in the test on A549 and in the test on HT-29 were greater than 30 µM and 30 µM, respectively.
With `CC[C@]12CCCn3ccc(c31)-c1ccccc1NC(=O)CC2` [RHAZINILAM], the IC50 with A549 and in the test with HT-29 was 0.35 µM throughout.

The values above are taken from ChEMBL document CHEMBL1151973, “Rhazinilam and quebrachamine derivatives from Yunnan Kopsia arborea” (J Nat Prod, 2009).
